Reference: patent publication US12134663B2, “Cationic peptides for activating Lck” (Interk Peptide Therapeutics Limited, priority 2018, dated 2024)
Where no end group is shown, it is not given here. [ ]: non-standard residue; d: D form.

Columns and labels:
[1] = test system: wild-type Jurkat cells; assay: IL-2R alpha (CD25) expression in PMA/ionomycin stimulated Jurkat cells; format: cell-based, human; conditions: PMA and ionomycin stimulated; peptide 2.5 μM, 96 hours; cell lysates
Procedure: In brief, wild-type Jurkat cells (1×10^6 cells) were cultured in standard RPMI medium and 10% foetal calf serum as above and either not stimulated or stimulated with PMA (50 ng/ml) and ionomycin for a period of 96 hours. Cells were exposed to the test peptides (2.5 μM conc.) listed in FIG. 10 for the entire 96 hour culture period, and IL-2R alpha levels were determined in cell lysates using a standard commercial ELISA format as described above.

[2] = test system: CD4+ T cells; assay: IL-21 production by CD4+ T cells; format: cell-based; conditions: anti-CD3 anti-CD28, 48 hr; detected in one donor only
Procedure: In brief, CD4+ T cells were isolated and cultured in the presence of anti-CD3 anti-CD28 stimulation and RSKAKNPLY-RRRRRRRRR (SEQ ID NO: 24) for 24 hr or 48 hr. At the end of culture, supernatants were assessed for IL-21 by ELISA.

[3] = test system: wild-type Jurkat cells; assay: IL-2 secretion in stimulated wild-type Jurkat cells (ELISA); format: cell-based, human; conditions: biotinylated anti-CD3, anti-CD28, avidin; 48 h exposure
Procedure: (§1) In brief, wild-type Jurkat cells (an immortalised line of human T lymphocyte cells) were stimulated by exposure to biotinylated anti-CD3 antibody in the presence of anti-CD28 antibody and avidin. During the culture period (48 hours or 72 hours) cells were exposed to test polypeptides. Cell supernatant was assayed for IL-2 at the end of 48 or 72 hours using a standard commercially available ELISA kit as described above.
In brief, cells were seeded at 1 million cells per well (12 well plate, 2 mL volume) and stimulated with Biotin-CD3, CD28, and avidin (5:5:1.25 μg). The cells were then treated with IK14804, and then incubated for 48 hours at 37° C. The supernatant (100 uL, n=3), was then analyzed for IL-2 content.
(§2) In brief, wild-type Jurkat cells (am immortalised line of human T lymphocyte cells) were stimulated by exposure to biotinylated anti-CD3 antibody in the presence of anti-CD28 antibody and avidin. Cells were seeded at 1 million cells per well (12 well plate, 2 mL volume) and stimulated with Biotin-anti-CD3, anti-CD28, and avidin (5:5:1.25 μg). Cells were treated with the test peptides and then incubated for 48 hours at 37° C. The supernatants (100 ul, n=3), were then analysed for IL-2 and IL-12 content. During the culture period (48 hours) cells were exposed to test polypeptide RSKAKNPLYR-(2Adod)4-NH2 (SEQ ID NO: 128). Cell supernatant was assayed for IL-2 and IL-12 at the end of 48 hours using standard commercially available ELISA kit as described above.

[4] = test system: isolated human CD4+ T cells; assay: IL-2 secretion from isolated stimulated CD4+ T cells; format: cell-based; conditions: anti-CD3 anti-CD28 Dynabeads, 0-1.25 μM, 24 hours; data not shown
Procedure: In brief, CD4+ and CD8+ T cells were isolated and immuno-magnetically separated from healthy human PBMCs. Levels of IL-2 were examined following anti-CD3 and anti-CD28 stimulation for 48 hours in the presence the Lck activating fusion polypeptide RSKAKNPLY-RRRRRRRRR (SEQ ID NO: 24).
The effect of Lck activating polypeptides on IL-2 secretion from CD4+ T cells in a stimulated CD4+ T cell assay was also examined. In brief, Isolated CD4+ T cells were stimulated with anti-CD3 anti-CD28 Dynabeads™ and cultured together with the Lck activating polypeptides RRRRRRRRR (SEQ ID NO: 6, “IK00900”) and RSKAKNPLY-RRRRRRRRR (SEQ ID NO: 24, “IK14800”), over a 5-concentration range plus vehicle control (0-1.25 μM) for 24 hours after which supernatants were assessed for IL-2 and IFN-γ by ELISA.

[5] = test system: wild-type Jurkat cells; assay: IL-12 secretion in stimulated wild-type Jurkat cells (ELISA); format: cell-based, human; conditions: biotinylated anti-CD3, anti-CD28, avidin; 48 h exposure
Procedure: as §1, with “The ability of Lck activating polypeptides to alter IL-12 secretion was examined. In” for “In”, “(48” for “(48 hours or 72”, “IL-12” for “IL-2”, “48” for “48 or 72”
In brief, cells were seeded at 1 million cells per well (12 well plate, 2 mL volume) and stimulated with Biotin-CD3, CD28, and avidin (5:5:1.25 μg). The cells were then treated with IK14800 (SEQ ID NO: 24), IK15800 (SEQ ID NO: 58), IK14804 (SEQ ID NO: 65) and IK15804 (SEQ ID NO: 66). The cells were then incubated for 48 hours at 37° C. The supernatants (100 uL, n=3), were then analyzed for IL-12 content.
as §2, with “During the culture period (48 hours) cells were exposed to test polypeptide RSKAKNPLYR-(2Adod)4-NH2 (SEQ ID NO: 128). Cell supernatant was assayed for IL-2 and IL-12 at the end of 48 hours using standard commercially available ELISA kit as described above.” left out

[6] = test system: anti-CD3 stimulated PBMCs; assay: IL-12p70 secretion in anti-CD3 stimulated PBMCs; format: cell-based, human; conditions: 24 hours
Procedure: The ability of Lck activating polypeptides to alter IL-12 (IL-12p70) secretion was examined further. In brief, anti-CD3 stimulated PBMCs were cultured together with the Lck activating polypeptides RVKVKVVVV-RRRRRRRRR (SEQ ID NO: 58, “IK15800”), RSKAKNPLY-RRRRRRRRR (SEQ ID NO: 24, “IK14800”), and RVKVKVVVV-RRRRRRRRR (SEQ ID NO: 58) and RSKAKNPLY-RRRRRRRRR (SEQ ID NO: 24) comprising only D amino acids (SEQ ID NO: 111, “IKD15800”, and SEQ ID NO: 129, “IKD14800”, respectively), in the presence and absence of anti-CD40L blocking antibody for 24 hours. Supernatants were assessed for IL-12p70 levels by ELISA.
The ability of Lck activating polypeptides to alter IL-12 (IL-12p70) secretion was examined relative to no peptide. In brief, PBMCs were cultured together with anti-CD3 (1 ug/ml) and the Lck activating polypeptide RSKAKNPLY-RRRRRRRRR (SEQ ID NO: 24) or RVKVKVVVV-RRRRRRRRR (SEQ ID NO: 58) for 24 or 72 hours. Supernatants were assessed for IL-12p70 levels by ELISA.

[7] = test system: isolated CD4+ T cells; assay: IL-21R (CD360) expression in stimulated CD4+ T cell assay; format: cell-based, human; conditions: anti-CD3 anti-CD28 Dynabeads; data not shown
Procedure: The effect of Lck activating polypeptides on IL-21R (CD360) expression on CD4+ T cells in a stimulated CD4+ T cell assay was examined. In brief, Isolated CD4+ T cells were stimulated with anti-CD3 anti-CD28 Dynabeads™ and cultured together with the Lck activating polypeptides RRRRRRRRR (SEQ ID NO: 6) and RSKAKNPLY-RRRRRRRRR (SEQ ID NO: 24), after which cells were assessed for IL-21R expression by flow cytometry.

[8] = test system: human PBMCs; assay: IFN-γ secretion by anti-CD3 stimulated PBMCs; format: cell-based; conditions: 48 hours; data not shown
Procedure: The ability of Lck activating polypeptides to alter IFN-γ secretion by human PBMCs was examined. In brief, anti-CD3 stimulated PBMCs were cultured together with the Lck activating polypeptides RRRRRRRRR (SEQ ID NO: 6), RVKVKVVVV-RRRRRRRRR (SEQ ID NO: 58) and RSKAKNPLY-RRRRRRRRR (SEQ ID NO: 24) for 48 hours after which supernatants were collected and assessed for IFN-γ by ELISA.

[9] = test system: isolated human CD4+ T cells; assay: IFN-γ secretion in stimulated CD4+ T cell assay; format: cell-based; conditions: anti-CD3 anti-CD28 Dynabeads, 24 hours
Procedure: (§3) The ability of Lck activating polypeptides to alter IFN-γ secretion by isolated human CD4+ T cells in a stimulated CD4+ T cell assay was also examined. In brief, Isolated CD4+ T cells were stimulated with anti-CD3 anti-CD28 Dynabeads™ and cultured together with the Lck activating polypeptides RRRRRRRRR (SEQ ID NO: 6, IK00900) and RSKAKNPLY-RRRRRRRRR (SEQ ID NO: 24, IK14800) for 24 hours after which supernatants were assessed for IFN-γ by ELISA.
as §3, with “polypeptides comprising D amino acids” for “polypeptides”, “polypeptide” for “polypeptides RRRRRRRRR (SEQ ID NO: 6, IK00900) and”, “IK14800), or the Lck activating polypeptide RSKAKNPLY-RRRRRRRRR (SEQ ID NO: 24) comprising only D amino acids (SEQ ID NO: 129, IKD14800),” for “IK14800)”

[10] = test system: isolated human CD8+ T cells; assay: IFN-γ secretion in stimulated CD8+ T cell assay; format: cell-based; conditions: anti-CD3 anti-CD28 Dynabeads, 24 hours
Procedure: as §3, with “CD8+” for “CD4+”, “was” for “was also”
In brief, Isolated CD8+ T cells were stimulated with anti-CD3 anti-CD28 Dynabeads™ and cultured together with the Lck activating polypeptide RSKAKNPLY-RRRRRRRRR (SEQ ID NO: 24), comprising only D amino acids (SEQ ID NO: 129, IKD14800), for 24 hours after which supernatants were assessed for IFN-γ by ELISA.

HHHHH-RSKAKNPLY-RRRRRRRRR (HHHHHRSKAKNPLYRRRRRRRRR) [IK11480]
IL-2R alpha (CD25) expression [1]: increased

IL-6: control in FIG. 28 showing boost to IL-21 secretion
IL-21 production [2]: boost to IL-21 secretion

RRRRRRRRR [IK00900]
IL-2 secretion relative to control [3]: induces IL-2 secretion
IL-2 secretion relative to control [4]: induce IL-2 secretion
IL-12 secretion relative to control [5]: induced IL-12 secretion
IL-12 (IL-12p70) secretion relative to cultures with anti-CD40L blocking antibody [6]: induced IL-12 secretion
IL-21R expression [7]: do not increase IL-21R expression
IFN-γ secretion relative to no peptide control [8]: induce IFN-γ secretion
IFN-γ secretion relative to no peptide control [9]: induced IFN-γ secretion
IFN-γ secretion relative to no peptide control [10]: induced IFN-γ secretion

RSKAKNPLY-RRRRRRRRR-HHHHHHHHHHHH (RSKAKNPLYRRRRRRRRRHHHHHHHHHHHH) [IK14820]
IL-2R alpha (CD25) expression [1]: increased

RSKAKNPLY-RRRRRRRRRR (RSKAKNPLYRRRRRRRRRR) [IK14900]
IL-2R alpha (CD25) expression [1]: increased

rskaknply ([dR][dS][dK][dA][dK][dN][dP][dL][dY]) [IKD94000]
IL-12 secretion relative to control [5]: increase IL-12 secretion
